Assay results reported in US20060160775A1, “Combination therapy” (priority 2003, published 2006).

Tests used:
[1] = system: Human LoVo colorectal carcinoma tumour xenografts; experiment: Human LoVo colorectal carcinoma tumour xenografts in nude mice; type: in vivo, athymic (nu/nu genotype) mouse; conditions: for Number of tumour regressions evident at day 14: groups of nine; for Mean % Inhibition of tumour growth at day 14: vs vehicle control
Procedure: Human LoVo Colorectal Carcinoma Tumour Xenografts in Nude Mice
1×10^7 LoVo tumour cells in 0.1 ml of serum free Dulbecco's Modified Eagle's Medium (DMEM) were injected subcutaneously (s.c.) into the flank of each athymic (nu/nu genotype) mouse. Tumour volumes were assessed by bilateral Vernier caliper measurement and, taking length to be the longest diameter across the tumour and width the corresponding perpendicular, calculated using the formula (length×width)×the square root of (length×width)×(π/6). […] ZD6126 was dissolved in a solution of 0.05% sodium carbonate in physiological saline and administered by intraperitoneal injection at 0.1 ml/10 g body weight. […] Inhibition of tumour growth from the start of treatment was assessed on day 14 by comparison of the differences in tumor volume between control and treated groups. In addition, the number of tumour regressions following 14 days of treatment was ascertained (tumour regression being evident if the tumour volume at day 14 was smaller than the pre-treatment value on day 0).

tumour vasculature = conditions: in vivo; cited from earlier work
tumour models = experiment: Anti-tumour activity in a range of models; type: in vivo; conditions: once-daily oral administration
[2] = ZD6126 alone, 100 mg/kg/day, days 0-2, i.p.
[3] = AZD2171 alone, 3 mg/kg/day, days 0-14, p.o.

COc1cc2c(c(OC)c1OC)-c1ccc(OP(=O)(O)O)cc1[C@@H](NC(C)=O)CC2 [ZD6126, (5S)-5-(acetylamino)-9,10,11-trimethoxy-6,7-dihydro-5H-dibenzo[a,c]cyclohepten-3-yl dihydrogen phosphate]
Number of tumour regressions evident at day 14 [1, 2]: 1/9
Mean % Inhibition of tumour growth at day 14 [1, 2]: 65% (P < 0.001)
Effect on tumour vasculature (tumour vasculature): selectively disrupts tumour vasculature leading to vessel occlusion and extensive tumour necrosis

COc1cc2c(Oc3ccc4[nH]c(C)cc4c3F)ncnc2cc1OCCCN1CCCC1 [AZD2171, 4-(4-fluoro-2-methylindol-5-yloxy)-6-methoxy-7-(3-(pyrrolidin-1-yl)propoxy)quinazoline]
Number of tumour regressions evident at day 14 [1, 3]: 0/9
Mean % Inhibition of tumour growth at day 14 [1, 3]: 62% (P < 0.001)
Anti-tumour activity (tumour models): broad-spectrum anti-tumour activity
